From patent publication US9296778B2, “3′,5′-cyclic phosphate prodrugs for HCV infection” (Idenix Pharmaceuticals, Inc., priority 2012, dated 2016)
pEC50: −log10 of the molar value.

How the values were obtained:
Huh-7 cells = assay: Release of active metabolite in Huh-7 cells; format: in vitro ADME, human; conditions: Huh-7 cells, AUC0-72
Method: Huh-7 cells were plated in 1 mL culture medium (DMEM, containing glucose, L-glutamine and sodium pyruvate, 10% FBS, 100 IU/mL penicillin, 100 μg/mL streptomycin, 2 mM GlutaMAX, 1% MEM non-essential amino acids) at the concentration 0.8, 0.4 and 0.2 million cells per well on 6 well plates for 24, 48 and 72 hr treatment, respectively. Plated cells were incubated overnight at 37° C. in an incubator.
The following morning compounds was diluted to 20 μM from a stock solution in DMSO in fresh culture medium pre-warmed to 37° C. and 1 mL of the solution/well was added to cells. A final medium volume per well was 2.0 mL, Compound concentration in well was 10 μM and final DMSO concentration was 0.1%.
After 24, 48 or 72 hr, the medium was carefully removed and cell monolayers were washed twice with 2 mL ice-cold PBS per well. Following the last wash, all PBS was carefully removed and 1.0 mL of extraction solution (ice-cold 70% methanol) added. The plate was tightly covered with Parafilm, plastic plate cover and Parafilm again and an intracellular content was extracted at −20° C. for 24 hr.
After 24 hr extracts were transferred into polypropylene microfuge tubes and dried on a refrigerated centrivap concentrator. Dry residues were reconstituted in 250 μL of HPLC-grade water and centrifuged at 16,000×g for 10 min. Aliquots (100 μL each) of the supernatants were transferred into a 96 well plate and internal standard (4 ng/mL final concentration) was added as the internal standard (IS) for LC-MS/MS analysis.

cathepsin A (CatA) = target: T1, cathepsin A (CatA) (Homo sapiens, UniProt P10619); assay: CatA hydrolysis assay; format: in vitro ADME; conditions: 100 μM compound, 37° C., 18 h
T1 construct: purchased R & D Systems (Minneapolis, Minn.)
T1 sequence (P10619 29-326 limits assumed): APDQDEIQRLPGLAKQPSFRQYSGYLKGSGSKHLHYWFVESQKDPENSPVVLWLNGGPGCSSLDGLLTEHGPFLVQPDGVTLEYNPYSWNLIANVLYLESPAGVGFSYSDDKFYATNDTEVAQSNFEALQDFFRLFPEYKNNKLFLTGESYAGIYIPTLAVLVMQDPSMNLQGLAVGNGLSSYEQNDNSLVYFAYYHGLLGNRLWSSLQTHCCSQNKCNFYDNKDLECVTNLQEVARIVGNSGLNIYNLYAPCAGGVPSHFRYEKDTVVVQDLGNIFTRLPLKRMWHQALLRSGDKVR
T1 sequence (P10619 327-480 limits assumed): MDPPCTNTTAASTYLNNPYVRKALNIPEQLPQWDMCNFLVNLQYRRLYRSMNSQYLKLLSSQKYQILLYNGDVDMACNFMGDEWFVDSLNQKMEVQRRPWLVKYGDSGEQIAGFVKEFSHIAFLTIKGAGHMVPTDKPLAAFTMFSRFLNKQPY
Method: CatA, cathepsin L (CatL) and CES1 were purchased from R & D Systems (Minneapolis, Minn.). Prior to the enzymatic hydrolysis reactions, CatA was activated according to the manufacturer's instruction. Briefly, CatA (0.05 μg/μL) was incubated with CatL (0.005 μg/μL) for 30 min at 37° C. in 25 mM MES pH 6.0 containing 5 mM DTT. The reaction was stopped by addition of the CatL specific inhibitor E64 (10 μM).
The CatA assay was performed at 37° C. The reaction mixture contained 25 mM MES buffer pH 6.0, 100 mM NaCl, 4 mM DTT and 100 μM of the compound. The reaction was started by addition of the activated CatA enzyme to a final concentration of 0.005 μg/μL. One hundred-μL aliquots were taken after 0.5 min, 3 hrs and 18 hrs of incubation. Reactions were stopped by mixing the sample with an equal volume of ice-cold methanol, and were loaded on a HPLC for analysis.
(§1) Samples were analyzed by HPLC using 5μ C-18, 4.6×250 mm Phenomenex® Columbus column (Phenomenex USA, CA). The mobile phase consisted of buffer A (25 mM potassium phosphate with 5 mM tetrabutylammonium dihydrogen phosphate pH 6.3) and buffer B (100% methanol).

[1] = target: T2, carboxylesterase 1 (CES1) (Homo sapiens, UniProt P23141); assay: CES1 hydrolysis assay; format: in vitro ADME; conditions: for CES1 hydrolysis: 100 μM compound, 37° C.
T2 construct: purchased R & D Systems (Minneapolis, Minn.)
T2 sequence (P23141 18-567): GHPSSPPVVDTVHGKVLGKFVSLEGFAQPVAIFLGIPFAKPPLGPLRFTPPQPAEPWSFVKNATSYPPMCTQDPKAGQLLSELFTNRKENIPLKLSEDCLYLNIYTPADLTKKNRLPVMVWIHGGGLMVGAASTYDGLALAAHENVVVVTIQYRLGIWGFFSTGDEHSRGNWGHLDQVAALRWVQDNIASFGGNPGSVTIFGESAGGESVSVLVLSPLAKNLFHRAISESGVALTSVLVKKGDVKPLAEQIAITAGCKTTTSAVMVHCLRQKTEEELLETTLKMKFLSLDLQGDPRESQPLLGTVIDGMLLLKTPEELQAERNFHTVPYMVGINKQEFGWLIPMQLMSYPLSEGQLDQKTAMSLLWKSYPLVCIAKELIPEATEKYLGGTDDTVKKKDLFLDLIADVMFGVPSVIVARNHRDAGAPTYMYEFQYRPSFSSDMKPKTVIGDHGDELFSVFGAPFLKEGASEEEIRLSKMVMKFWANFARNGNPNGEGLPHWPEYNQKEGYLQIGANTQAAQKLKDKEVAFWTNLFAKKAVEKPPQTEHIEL
Method: CES1 assay was performed at 37° C. in the reaction mixture containing 50 mM Tris/HCl buffer pH 7.5 and 100 μM of the compound. Reaction was started by addition of the CES1 to the final concentration 0.01 μg/mL. 100 μL aliquots were taken after 0.5 min, 3 hrs and 21 hrs of the incubation and the reaction was stopped by mixing with 100 μl of the ice-cold methanol prior to HPLC analysis.
as §1

genotype 1b HCV replicon = assay: genotype 1b HCV replicon-bearing Huh-7 cells (Table 5); format: cell-based
Text: In vivo Z4 and Z2 appear to be effectively liver-targeted with a high liver:plasma ratio of drug metabolites. Both prodrugs are readily converted to the triphosphate (TP) metabolite in the liver of mice and monkey producing more TP than GS-7977. […] The in vitro antiviral inactivity of Z4 and Z2 is thought to reflect an inability of Huh-7 replicon cells to metabolize the prodrug moiety.

Liver TP (Table 5) = format: in vivo
HCV genotype 1b replicon = assay: HCV Replicon Assay; format: cell-based; conditions: Hepatitis C virus, 72 h, read-out: HCV Replicon EC50
Method in brief: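 Zluc Huh-7 cells with HCV genotype 1b replicon and luciferase reporter treated with 5-fold dilutions (100 μM to 0.0000512 μM final) in duplicate, or at 1 and 10 μM. Luminescence read with ONE-glo; EC50 from dose-response fits, or % inhibition at the fixed concentrations.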

[2] = cytotoxicity evaluation (CellTiter-Blue Cell Viability Assay); conditions: human

Compound | Huh-7 AUC0-72 (Huh-7 cells) [pmol * hr/10^6cells] | CatA hydrolysis (cathepsin A (CatA)) [% @ 18 h] | hydrolysis by CES1 (in words) [1] | CES1 hydrolysis ([1]; 3 h) | CES1 hydrolysis ([1]; 21 h) [%/21 h] | pEC50 (genotype 1b HCV replicon) | Liver TP (Liver TP (Table 5)) [pmol·h/g] | pEC50 (HCV genotype 1b replicon) | CC50 [2] [nM]
CC(C)OC(=O)[C@H](C)N[P@@](=O)(OC[C@H]1O[C@@H](n2ccc(=O)[nH]c2=O)[C@](C)(F)[C@@H]1O)Oc1ccccc1 [PSI-7976] | 6527 | 10 | preferentially hydrolyzed | 56%/3 h; | 94 | 5.68 | 310 | – | –
CCOc1nc(N)nc2c1ncn2[C@@H]1O[C@@H]2COP(=O)(Oc3ccc(C[C@H](NC(=O)OC)C(=O)OC(C)C)cc3)O[C@H]2[C@@]1(C)F (stereo partly drawn) [Compound 13] | – | – | – | – | – | – | – | > 6.60 | > 50000
